# Target: T1, human PDE2A1 (Homo sapiens, UniProt O00408)
# T1 construct: GST; purchased BPS Bioscience (San Diego, Calif.) 60020; host or cells: insect cells
# Assay: IMAP FP PDE selectivity panel, human PDE2A1
# Assay type: biochemical
# Details: Lab B; read-out: Human PDE2 Ki (nM) Lab B
# How it was run: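 IMAP FP read-out, run at room temperature in parallel with PDE1–11: enzyme at 20% substrate conversion, 50 nM FAM-cAMP containing 1000 nM cGMP, Tris pH 7.2/MgCl2/DTT buffer. Compounds as ten 3-fold dilutions. Reaction 60 min, stopped with binding reagent for 1 h before polarization measurement.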
# T1 sequence (O00408 1-920 isoform O00408-2): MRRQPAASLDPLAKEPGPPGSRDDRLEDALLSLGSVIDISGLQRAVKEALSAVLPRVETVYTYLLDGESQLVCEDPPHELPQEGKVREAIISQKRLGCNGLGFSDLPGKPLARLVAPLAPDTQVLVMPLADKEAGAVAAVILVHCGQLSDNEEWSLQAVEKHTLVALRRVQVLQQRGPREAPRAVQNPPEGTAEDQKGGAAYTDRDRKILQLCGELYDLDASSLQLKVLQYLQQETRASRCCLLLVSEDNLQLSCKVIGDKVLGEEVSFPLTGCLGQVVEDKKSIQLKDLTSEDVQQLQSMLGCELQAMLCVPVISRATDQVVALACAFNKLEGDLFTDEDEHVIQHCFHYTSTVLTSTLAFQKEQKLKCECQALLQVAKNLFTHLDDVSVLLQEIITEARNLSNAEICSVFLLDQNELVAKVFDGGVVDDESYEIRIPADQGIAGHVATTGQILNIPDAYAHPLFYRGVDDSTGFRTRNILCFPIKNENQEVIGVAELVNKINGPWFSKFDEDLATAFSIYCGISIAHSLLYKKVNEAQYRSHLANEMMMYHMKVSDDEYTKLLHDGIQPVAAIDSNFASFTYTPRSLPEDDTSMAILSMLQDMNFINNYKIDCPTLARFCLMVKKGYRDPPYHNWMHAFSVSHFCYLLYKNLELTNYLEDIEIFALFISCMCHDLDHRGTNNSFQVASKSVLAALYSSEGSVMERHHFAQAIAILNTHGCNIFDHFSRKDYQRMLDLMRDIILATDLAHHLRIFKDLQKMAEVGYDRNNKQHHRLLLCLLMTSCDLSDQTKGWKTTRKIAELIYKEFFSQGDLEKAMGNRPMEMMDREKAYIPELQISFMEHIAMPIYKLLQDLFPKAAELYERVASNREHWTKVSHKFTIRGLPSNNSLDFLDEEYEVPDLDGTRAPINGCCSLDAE
row,Compound,Ki [nM]
1,"Fc1cc(C2(Nc3cc(C(F)(F)F)cc4ncnn34)CC2)ccc1C(F)(F)F [Example 276, N-(1-(3-fluoro-4-(trifluoromethyl)phenyl)cyclopropyl)-7-(trifluoromethyl)-[1,2,4]triazolo[1,5-a]pyridin-5-amine]",68
2,"Fc1cc(C2(Nc3cc(Cl)nc4ncnn34)CC2)ccc1C(F)(F)F [Example 208, 5-Chloro-N-(1-(3-fluoro-4-(trifluoromethyl)phenyl)cyclopropyl)-[1,2,4]triazolo [1,5-a]pyrimidin-7-amine]",2.7
3,"Cc1cc(N[C@@H](c2ccc(C3CC3)cc2)C2CC2)n2ncnc2n1 [Example 42, N-[(R)-Cyclopropyl(4-cyclopropylphenyl)methyl]-5-methyl[1,2,4]triazolo[1,5-a] pyrimidin-7-amine]",20
4,"COCC(Nc1cc(C(F)(F)F)nc2ncnn12)c1ccc(C(F)(F)F)c(F)c1 (single isomer, unassigned) [Example 217, (R)- or (S)-N-(1-(3-Fluoro-4-(trifluoromethyl)phenyl)-2-methoxyethyl)-5-(trifluoromethyl)-[1,2,4]triazolo [1,5-a]pyrimidin-7-amine]",329
5,"Cc1nc2ncnn2c(NC2(c3ccc(C(F)(F)F)c(F)c3)CC2)c1C [Example 87, N-{1-[3-Fluoro-4-(trifluoromethyl)phenyl]cyclopropyl}-5,6-dimethyl[1,2,4]triazolo[1,5-a]pyrimidin-7-amine]",132
6,"Cc1cc(NC2(c3ccc(C(F)(F)F)cc3)COC2)n2ncnc2n1 [Example 199, 5-Methyl-N-(3-(4-(trifluoromethyl)phenyl)oxetan-3-yl)-[1,2,4]triazolo [1,5-a]pyrimidin-7-amine]",167
7,"COCc1cc(NC2(c3ccc(C(F)(F)F)c(F)c3)CC2)n2ncnc2n1 [Example 75, N-{1-[3-Fluoro-4-(trifluoromethyl)phenyl]cyclopropyl}-5-(methoxymethyl) [1,2,4]triazolo[1,5-a]pyrimidin-7-amine]",201
8,"Cc1cc(NC2(c3ccc(C(F)(F)F)c(F)c3)CC2)n2nc(C(F)F)nc2n1 [Example 201, 2-(Difluoromethyl)-N-(1-(3-fluoro-4-(trifluoromethyl)phenyl)cyclopropyl)-5-methyl-[1,2,4]triazolo [1,5-a]pyrimidin-7-amine]",131
9,"CCc1nc2nc(C)cc(NC3(c4ccc(C(F)(F)F)c(F)c4)CC3)n2n1 [Example 193, 2-Ethyl-N-(1-(3-fluoro-4-(trifluoromethyl)phenyl)cyclopropyl)-5-methyl-[1,2,4]triazolo [1,5-a]pyrimidin-7-amine]",142
10,"Cc1cc(NC2(c3ccc(S(F)(F)(F)(F)F)cc3)CC2)n2ncnc2n1 [Example 58, 5-Methyl-N-{1-[4-(pentafluoro-λ^6-sulfanyl)phenyl]cyclopropyl}[1,2,4] triazolo[1,5-a]pyrimidin-7-amine]",52
11,"Cc1cc(NC2(c3ccc(C(F)(F)F)cc3F)CC2)n2ncnc2n1 [Example 62, N-{1-[2-Fluoro-4-(trifluoromethyl)phenyl]cyclopropyl}5-methyl-[1,2,4]triazolo[1,5-a]pyrimidin-7-amine]",162
12,"CC(C)(O)[C@@H](Nc1cc(CO)cc2ncnn12)c1ccc(OC(F)(F)F)cc1F [Example 273, (1S)-1-[2-Fluoro-4-(trifluoromethoxy)phenyl]-1-{[7-(hydroxymethyl)[1,2,4]triazolo [1,5-a]pyridin-5-yl]amino}-2-methylpropan-2-ol]",102
13,"Cc1cc(N[C@@H](c2ccc(C(F)(F)F)c(F)c2)C(C)(C)C)n2nc(CCO)nc2n1 [Example 250, (R)-2-(7-(1-(3-Fluoro-4-(trifluoromethyl)phenyl)-2,2-dimethylpropylamino)-5-methyl-[1.2.4]triazolo[1,5-a]pyrimidin-2-yl)ethanol]",57

# Results, then the compound that gave them:
row,Ki [nM],Compound
1,21,"Cc1cc(NC(c2ccc(OC(F)(F)F)cc2C)C(C)(C)O)n2ncnc2n1 (single isomer, unassigned) [Example 129, (1R or S)-2-Methyl-1-[(5-methyl[1,2,4]triazolo[1,5-a]pyrimidin-7-yl)amino]-1-[2-methyl-4-(trifluoromethoxy)phenyl]propan-2-ol]"
2,~1310,"CC(C)(O)C(Nc1cc(C(F)(F)F)nc2ncnn12)c1ccc(OC(F)(F)F)c(F)c1 (single isomer, unassigned) [Example 176, (1R or S)-1-[3-Fluoro-4-(trifluoromethoxy)phenyl]-2-methyl-1-{[5-(trifluoromethyl) [1,2,4]triazolo [1,5-a]pyrimidin-7-yl]amino} propan-2-ol]"
3,> 2960,"Cc1cc(N[C@H](c2ccc(OC(F)(F)F)cc2)C(C)(C)O)n2ncnc2n1 [Example 97, (1R)-2-Methyl-1-[(5-methyl [1,2,4]triazolo[1,5-a]pyrimidin-7-yl)amino]-1-[4-(trifluoromethoxy)phenyl]propan-2-ol]"
4,> 2960,"CC(C)(C)c1cc(NC(c2ccc(S(F)(F)(F)(F)F)cc2)C(C)(C)O)n2ncnc2n1 (single isomer, unassigned) [Example 150, (1S or R)-1-[(5-tert-Butyl[1,2,4]triazolo[1,5-a]pyrimidin-7-yl)amino]-2-methyl-1-[4-(pentafluoro-λ^6-sulfanyl)phenyl] propan-2-ol]"
5,877,"CC(C)(O)C(Nc1cc(C2CC2)nc2ncnn12)c1ccc(OC(F)(F)F)c(F)c1 (single isomer, unassigned) [Example 141, (1R or S)-1-[(5- Cyclopropyl [1,2,4]triazolo [1,5-a]pyrimidin-7-yl)amino]-1-[3-fluoro-4-(trifluoro-methoxy)phenyl]-2-methylpropan-2-ol]"
6,81,"Cc1cc(NC2(c3ccc(C(C)(C)C)cc3)CC2)n2ncnc2n1 [Example 61, N-{1-[4-(tert-Butyl)phenyl]cyclopropyl}5-methyl-[1,2,4]triazolo[1,5-a]pyrimidin-7-amine]"
7,19,"CC(C)(C)c1ccc(C(Nc2cc(C(F)(F)F)nc3ncnn23)C(C)(C)O)cc1 (single isomer, unassigned) [Example 161, (1S or S)-1-(4-tert-Butylphenyl)-2-methyl-1-{[5-(trifluoromethyl) [1,2,4]triazolo [1,5-a]pyrimidin-7-yl]amino} propan-2-ol]"
8,736,"Cc1cc(NC(CO)c2ccc(C(F)(F)F)cc2)n2ncnc2n1 (centres unmarked) [Example 88, 2-[(5-Methyl[1,2,4]triazolo[1,5-a]pyrimidin-7-yl)amino]-2-[4-(trifluoromethyl)phenyl]ethanol]"
9,4,"Cc1cc(N[C@@H](c2ccc(SC(F)(F)F)c(F)c2)C(C)C)n2ncnc2n1 [Example 21, N-[(1R)-1-{3-Fluoro-4-[(trifluoromethyl)sulfanyl]phenyl}-2-methylpropyl]-5-methyl[1,2,4]triazolo[1,5-a] pyrimidin-7-amine]"
10,~1790,"Cc1cc(N[C@@H](c2ccc(C(F)(F)F)cc2)[C@H](C)O)n2ncnc2n1 [Example 90, (1S,2S)-1-[(5-Methyl[1,2,4]triazolo[1,5-a]pyrimidin-7-yl)amino]-1-[4-(trifluoromethyl)phenyl]propan-2-ol]"
11,35,"Cc1cc(NC(c2ccc3ccccc3c2)C(C)(C)O)n2ncnc2n1 (single isomer, unassigned) [Example 123, (1R or S)-2-Methyl-1-[(5-methyl [1,2,4]triazolo [1,5-a]pyrimidin-7-yl)amino]-1-naphthalen-2-yl propan-2-ol]"
12,583,"COCC(Nc1cc(C)nc2ncnn12)c1ccc(C(F)(F)F)c(F)c1 (single isomer, unassigned) [Example 210, (S)- or (R)-N-(1-(3-Fluoro-4-(trifluoromethyl)phenyl)-2-methoxyethyl)-5-methyl-[1,2,4]triazolo [1,5-a]pyrimidin-7-amine]"
13,48,"Cc1cc(N[C@H](C)c2ccc(C3CC3)c(F)c2)n2ncnc2n1 [Example 14, N-[(1R)-1-(4-Cyclopropyl-3-fluorophenyl)ethyl]-5-methyl[1,2,4]triazolo[1,5-a] pyrimidin-7-amine]"
14,77,"CC(C)(O)C(Nc1cc(C(F)(F)F)nc2ncnn12)c1ccc(C(F)F)cc1 (single isomer, unassigned) [Example 163, (1S or R)-1-[4-(Difluoromethyl)phenyl]-2-methyl-1-{[5-(trifluoromethyl) [1,2,4]triazolo [1,5-a]pyrimidin-7-yl]amino} propan-2-ol]"
15,~2190,"CC(C)(O)C(Nc1cc(C(F)(F)F)nc2ncnn12)c1ccc(OC(F)F)cc1 (single isomer, unassigned) [Example 166, (1R or S)-1-[4-(Difluoromethoxy)phenyl]-2-methyl-1-{[5-(trifluoromethyl) [1,2,4]triazolo [1,5-a]pyrimidin-7-yl]amino} propan-2-ol]"
16,> 2960,"Cc1cc(NC(c2ccc(CC(F)(F)F)cc2)C(C)(C)O)n2ncnc2n1 (single isomer, unassigned) [Example 118, (1S or R)-2-Methyl-1-[(5-methyl [1,2,4]triazolo [1,5-a]pyrimidin-7-yl)amino]-1-[4-(2,2,2-trifluoroethyl)phenyl]propan-2-ol]"
17,> 2960,"Cc1cc(NC(c2ccc(OC(F)F)cc2)C(C)(C)O)n2ncnc2n1 (single isomer, unassigned) [Example 110, (1S or R)-1-[4-(Difluoro-methoxy)phenyl]-2-methyl-1-[(5-methyl[1,2,4]triazolo[1,5-a]pyrimidin-7-yl)amino]propan-2-ol]"
18,25,"CC(C)(O)C(Nc1cc(C(F)(F)F)nc2ncnn12)c1ccc(C(F)(F)F)c(F)c1 (single isomer, unassigned) [Example 214, (S)- or (R)-1-(3-Fluoro-4-(trifluoromethyl)phenyl)-2-methyl-1-(5-(trifluoromethyl)-[1,2,4]triazolo [1,5-a]pyrimidin-7-ylamino)propan-2-ol]"
19,15,"CC[C@@H](Nc1cc(C)nc2ncnn12)c1ccc(SC(F)(F)F)cc1 [Example 17, 5-Methyl-N-[(1R)-1-{4-[(trifluoromethyl)sulfanyl]phenyl}propyl][1,2,4]triazolo[1,5-a] pyrimidin-7-amine]"
